Test results reported in US9617343B2, “Methods and compositions for treating lupus” (GENZYME CORPORATION, priority 2009, dated 2017).

Assays:
Assay type in all cases: in vivo, mouse
NZB/NZWF1 mice [1] = conditions: antibodies two doses ~3 mg/kg i.p., cyclophosphamide 50 mg/kg weekly injections, to 43 weeks of age
NZB/NZWF1 mice [2] = assay: Titers of serum IgG antibodies to dsDNA by ELISA; conditions: antibody two i.p. injections ~3 mg/kg, cyclophosphamide 50 mg/kg weekly
NZB/NZWF1 mice [3] = assay: Levels of proteinuria (colorimetric total urine protein assay); conditions: by the end of the study (43 weeks), antibodies two i.p. injections ~3 mg/kg, cyclophosphamide 50 mg/kg weekly
NZB/NZWF1 mice [4] = assay: Kidney section staining for CD4+, CD8+ and FoxP3+ cells; conditions: kidney sections of NZB/NZWF1 mice scored blindly on a scale of 0-4
NZB/NZWF1 mice [5] = assay: Histological examination of kidneys; conditions: trend, not statistically significant

## O=P1(N(CCCl)CCCl)NCCCO1 (centres unmarked) [cyclophosphamide, Cyclophosphamide]
NZB/NZWF1 mice [1]
  survival: 80%
NZB/NZWF1 mice [2]
  effect on development of autoantibodies against dsDNA (serum IgG titers): effectively reduced
NZB/NZWF1 mice [3]
  mice that reached severe proteinuria (>500 mg/dL/day): 20%
NZB/NZWF1 mice [4]
  CD4+ cells infiltrating the kidneys: significant decrease
  CD8+ cells infiltrating the kidneys: significant decrease
  FoxP3+ cells infiltrating the kidneys: significant decrease
NZB/NZWF1 mice [5]; compared to rat IgG and vehicle control groups
  median glomerulopathy scores: reduced
NZB/NZWF1 mice [5]
  interstitial inflammation: Reduced
